The target in data set [1] is T1, 5-hydroxytryptamine receptor 2C (Homo sapiens) (UniProt P28335).
T1 sequence (whole entry): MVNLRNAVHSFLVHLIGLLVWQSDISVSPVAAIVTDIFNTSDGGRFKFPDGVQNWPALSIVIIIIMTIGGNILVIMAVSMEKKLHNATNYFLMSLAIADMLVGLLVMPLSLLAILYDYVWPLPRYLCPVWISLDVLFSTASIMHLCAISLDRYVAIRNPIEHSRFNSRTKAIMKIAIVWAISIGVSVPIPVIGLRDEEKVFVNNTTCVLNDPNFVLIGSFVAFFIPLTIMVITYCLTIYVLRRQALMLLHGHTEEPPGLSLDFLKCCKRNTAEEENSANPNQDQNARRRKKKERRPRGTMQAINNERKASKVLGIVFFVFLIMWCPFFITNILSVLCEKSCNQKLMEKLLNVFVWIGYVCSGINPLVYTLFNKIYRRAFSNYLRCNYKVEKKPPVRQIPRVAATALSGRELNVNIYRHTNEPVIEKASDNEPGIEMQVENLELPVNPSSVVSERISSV
Kind of data set: Partial agonist activity at human 5-HT2CR expressed in human Flp-In-T-REx-293 cells assessed as increase in calcium flux by measuring maximal efficacy incubated for 60 mins followed by incubation for 30 mins in dark by Flou-4 dye based FLIPR assay relative to control. The data set is classed as functional, cell-based. The following applies: time 90.0 min. (In general: Calcium assays in cells follow changes in intracellular calcium, usually with a dye or a luminescent sensor.)

The target of data set [2] is T2, 5-hydroxytryptamine receptor 2C (Homo sapiens, UniProt P28335).
T2 sequence (P28335 whole entry): T1 sequence (whole entry)
Kind of data set: Partial agonist activity at human 5-HT2CR expressed in human Flp-In-T-REx-293 cells assessed as increase in calcium flux incubated for 60 mins followed by incubation for 30 mins in dark by Flou-4 dye based FLIPR assay. The data set is classed as functional, cell-based.

Data set [3] addresses T1, 5-hydroxytryptamine receptor 2C (Homo sapiens). Kind of data set: Partial agonist activity at human 5-HT2CR expressed in human Flp-In-T-REx-293 cells assessed as increase in calcium flux upto 10 uM incubated for 60 mins followed by incubation for 30 mins in dark by Flou-4 dye based FLIPR assay. The data set is classed as functional, cell-based. The conditions noted are these: time 90.0 min.

The target is the same in data set [4]. Kind of data set: Agonist activity at human 5-HT2CR expressed in human Flp-In-T-REx-293 cells assessed as increase in calcium flux by measuring maximal efficacy incubated for 60 mins followed by incubation for 30 mins in dark by Flou-4 dye based FLIPR assay. The data set is classed as functional, cell-based. The conditions noted are these: filed as agonist, time 90.0 min.

The target of data set [5] is T2, 5-hydroxytryptamine receptor 2C. Kind of data set: Agonist activity at human 5-HT2CR expressed in human Flp-In-T-REx-293 cells assessed as increase in calcium flux incubated for 60 mins followed by incubation for 30 mins in dark by Flou-4 dye based FLIPR assay. The data set is classed as functional, cell-based.
The target in data set [6] is T3, 5-hydroxytryptamine receptor 2B (Homo sapiens, UniProt P41595). Kind of data set: Partial agonist activity at human 5-HT2BR expressed in human Flp-In-T-REx-293 cells assessed as increase in calcium flux by measuring maximal efficacy incubated for 60 mins followed by incubation for 30 mins in dark by Flou-4 dye based FLIPR assay relative to control. The following applies: time 90.0 min. It is filed as functional, cell-based.
T3 sequence (P41595 whole entry): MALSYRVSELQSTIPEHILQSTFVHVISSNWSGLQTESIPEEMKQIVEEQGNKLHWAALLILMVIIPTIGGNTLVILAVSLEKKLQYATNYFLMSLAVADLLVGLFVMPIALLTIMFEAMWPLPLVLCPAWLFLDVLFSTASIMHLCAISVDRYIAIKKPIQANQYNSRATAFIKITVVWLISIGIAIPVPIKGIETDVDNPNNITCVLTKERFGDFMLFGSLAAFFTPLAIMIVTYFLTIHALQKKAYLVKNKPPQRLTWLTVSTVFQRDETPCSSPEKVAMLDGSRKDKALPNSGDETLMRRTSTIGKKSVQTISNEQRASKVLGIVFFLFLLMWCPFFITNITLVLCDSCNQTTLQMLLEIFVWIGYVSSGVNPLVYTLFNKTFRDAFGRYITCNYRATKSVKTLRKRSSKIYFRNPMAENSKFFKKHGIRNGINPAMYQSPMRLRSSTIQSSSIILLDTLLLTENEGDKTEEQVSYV

In data set [7] the target is 5-hydroxytryptamine receptor 2A (Homo sapiens) (UniProt P28223). Kind of data set: Partial agonist activity at human 5-HT2AR expressed in human Flp-In-T-REx-293 cells assessed as increase in calcium flux upto 10 uM incubated for 60 mins followed by incubation for 30 mins in dark by Flou-4 dye based FLIPR assay. The following applies: time 90.0 min. It is filed as functional, cell-based.
Chain of 5-hydroxytryptamine receptor 2A (Homo sapiens) (P28223 whole entry): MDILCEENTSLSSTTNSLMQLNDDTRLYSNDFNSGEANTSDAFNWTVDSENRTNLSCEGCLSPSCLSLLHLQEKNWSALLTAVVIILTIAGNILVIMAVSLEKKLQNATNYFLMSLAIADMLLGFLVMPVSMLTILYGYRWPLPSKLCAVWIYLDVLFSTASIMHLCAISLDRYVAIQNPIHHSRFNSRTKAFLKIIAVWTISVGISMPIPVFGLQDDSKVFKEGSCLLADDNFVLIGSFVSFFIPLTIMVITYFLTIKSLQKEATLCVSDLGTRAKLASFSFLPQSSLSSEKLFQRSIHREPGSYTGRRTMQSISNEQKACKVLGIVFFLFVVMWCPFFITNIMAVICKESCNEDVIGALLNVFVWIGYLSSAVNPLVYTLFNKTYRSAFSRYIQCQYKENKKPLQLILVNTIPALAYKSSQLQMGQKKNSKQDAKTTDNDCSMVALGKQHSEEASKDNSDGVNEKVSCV

The target of data set [8] is T3, 5-hydroxytryptamine receptor 2B. Kind of data set: Partial agonist activity at human 5-HT2BR expressed in human Flp-In-T-REx-293 cells assessed as increase in calcium flux incubated for 60 mins followed by incubation for 30 mins in dark by Flou-4 dye based FLIPR assay. The data set is classed as functional, cell-based.
For data set [9], the target named is T1, 5-hydroxytryptamine receptor 2C (Homo sapiens). Kind of data set: Partial agonist activity at Rluc-tagged 5-HT2CR (unknown origin) transfected in HEK293T cells assessed as beta-arrestin-2 recruitment incubated for 10 mins by coelenterazine 400a based BRET assay. It is filed as functional, cell-based. (Recruitment of arrestin is a read-out of receptor activation apart from second messengers.)

Data set [10] deals with T4, hERG (KCNH2) (Homo sapiens, UniProt Q12809). Kind of data set: Inhibition of hERG expressed in CHO cells at 10 uM by automated patch clamp method relative to control. The data set is classed as toxicity, cell-based. The following applies: CHO cells that express hERG. (The hERG channel carries a current that helps repolarise heart muscle cells.)
T4 sequence (Q12809 whole entry): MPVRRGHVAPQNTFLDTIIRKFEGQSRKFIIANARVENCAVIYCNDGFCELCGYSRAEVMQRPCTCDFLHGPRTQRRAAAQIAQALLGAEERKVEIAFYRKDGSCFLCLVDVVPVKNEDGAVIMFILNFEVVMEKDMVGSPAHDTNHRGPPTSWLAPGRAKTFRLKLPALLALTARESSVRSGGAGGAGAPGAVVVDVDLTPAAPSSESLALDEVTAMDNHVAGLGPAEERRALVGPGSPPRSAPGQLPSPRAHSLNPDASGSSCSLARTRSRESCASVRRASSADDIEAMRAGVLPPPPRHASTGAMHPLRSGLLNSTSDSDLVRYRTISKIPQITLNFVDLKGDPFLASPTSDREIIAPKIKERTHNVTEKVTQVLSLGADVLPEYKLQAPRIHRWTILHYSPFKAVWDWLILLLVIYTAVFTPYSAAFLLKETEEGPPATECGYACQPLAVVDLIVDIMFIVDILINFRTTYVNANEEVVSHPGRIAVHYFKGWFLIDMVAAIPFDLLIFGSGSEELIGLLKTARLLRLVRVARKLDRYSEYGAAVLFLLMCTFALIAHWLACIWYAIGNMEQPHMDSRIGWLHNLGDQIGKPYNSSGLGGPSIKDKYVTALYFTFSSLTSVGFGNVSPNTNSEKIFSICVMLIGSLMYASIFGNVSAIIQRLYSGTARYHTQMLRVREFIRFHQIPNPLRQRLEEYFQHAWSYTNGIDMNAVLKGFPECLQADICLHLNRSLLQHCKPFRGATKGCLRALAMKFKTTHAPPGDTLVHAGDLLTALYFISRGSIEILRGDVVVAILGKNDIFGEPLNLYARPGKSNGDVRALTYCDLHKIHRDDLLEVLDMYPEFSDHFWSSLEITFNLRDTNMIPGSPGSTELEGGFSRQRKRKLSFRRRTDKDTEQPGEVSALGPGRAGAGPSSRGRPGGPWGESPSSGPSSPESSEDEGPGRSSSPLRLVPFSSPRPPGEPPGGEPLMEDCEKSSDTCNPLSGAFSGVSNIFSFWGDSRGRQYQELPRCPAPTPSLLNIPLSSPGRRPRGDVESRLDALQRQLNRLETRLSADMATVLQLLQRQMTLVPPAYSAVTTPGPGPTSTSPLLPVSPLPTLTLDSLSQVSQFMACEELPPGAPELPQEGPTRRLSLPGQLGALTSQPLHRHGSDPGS
For data set [11], the target named is T3, 5-hydroxytryptamine receptor 2B. Kind of data set: Partial agonist activity at human 5-HT2BR expressed in human Flp-In-T-REx-293 cells assessed as increase in calcium flux upto 10 uM incubated for 60 mins followed by incubation for 30 mins in dark by Flou-4 dye based FLIPR assay. It is filed as functional, cell-based. The following applies: time 90.0 min.

Data set [12] deals with T4, hERG (KCNH2). Kind of data set: Inhibition of hERG at 10 uM relative to control. The data set is classed as toxicity.

Calls of active or inactive are those of the source. The rule behind the calls is not given here.

In the case of `NC1CCC2(C=Cc3ccc(Cl)cc3O2)CC1` (stereo not given), the Emax (in general, the greatest response seen or fitted, relative to the assay's reference) in data set [1] (filed as partial agonist) was determined as 69%. In addition, in [2] (read-out: EC50), the EC50 came out at 3.38 µM.

As to `CC1CNCCC12C=Cc1ccc(Cl)cc1O2` (stereo in doubt; 29b) [listing 1 of 2 here], the EC50 in data set [2] (read-out: EC50) was found to be 2.65 µM.

Take `Clc1ccc2c(c1)OC1(C=C2)CNC1`: the maximal response (Emax) in data set [1] (filed as partial agonist) was 58.5%. Also, the EC50 in data set [2] (read-out: EC50) was 2.49 µM.

Take `Cc1ccc2c(c1)OC1(C=C2)CCNCC1`: in data set [3], the outcome was inactive.

For the compound `COc1ccc2c(c1)OC1(C=C2)CCNCC1`, in data set [1] (filed as partial agonist), the Emax worked out at 50.4%. Further, the EC50 in data set [2] (read-out: EC50) worked out at 3.74 µM.

With `Fc1ccc2c(c1)C=CC1(CCNCC1)O2`, in data set [1] (filed as partial agonist), the maximal effect (Emax) stood at 49.5%. For the same compound, the EC50 in data set [2] (read-out: EC50) turned out to be 3.06 µM.

As for `Clc1ccc2c(c1)C=CC1(CCNCC1)O2`, in data set [1], the Emax was 36.3%. Also, the EC50 was 0.215 µM in data set [2] (read-out: EC50) and 2 µM in data set [2] (read-out: pEC50 (converted)).

Regarding `Clc1ccc2c(c1)OC1(C=C2)CC2CCC(C1)N2` (stereo not given), in data set [3], the result was inactive.

`CC1CNCCC12C=Cc1ccc(Cl)cc1O2` (stereo in doubt; 29a) [listing 1 of 2 here]: in [1] (filed as partial agonist), the Emax turned out to be 80%.

As to `O=C1CC2(CCNCC2)Oc2ccccc21`, the result in data set [3] was inactive.

Take `Clc1ccc2c(c1)OC1(C=C2)CCCNC1` (stereo not given): in [3], the result was inactive.

For `Clc1ccc2c(c1Cl)OC1(C=C2)CCNCC1`, in data set [3], the outcome was inactive.

As to `Clc1ccc2c(c1)OC1(C=C2)CCCNCC1` (stereo not given), in data set [1], the Emax came out at 26.2%. Besides, the EC50 in [2] (read-out: EC50) stood at 3.11 µM.

As for `Cc1cccc2c1C=CC1(CCNCC1)O2`, in [1] (filed as partial agonist), the maximal response (Emax) stood at 55.2%. Further, in data set [2] (read-out: EC50), the EC50 came to 0.17 µM.

With `Clc1cccc2c1C=CC1(CCNCC1)O2`, the figures for the maximal response (Emax) in data set [4] and in [6] were 81.9% and 34.1%, respectively. Besides, the EC50 in [5] is 0.031 µM; in data set [8] it was 0.0684 µM. Further, the outcome in [7] was inactive.

As to `C[C@H]1CC2(C=Cc3ccc(Cl)cc3O2)CCN1` (stereo in doubt; 31b), the result in [3] was inactive.

As for `Cc1ccc2c(c1)C=CC1(CCNCC1)O2`, the outcome in [3] was inactive.

For `Brc1ccc2c(c1)OC1(C=C2)CCNCC1`, in data set [1] (filed as partial agonist), the Emax was 72.6%. The EC50 in data set [2] (read-out: EC50) turned out to be 0.488 µM.

As to `Clc1ccc2c(c1)OC1(C=C2)CCNC1` (stereo not given), in data set [1] (filed as partial agonist), the maximal response (Emax) was 44.7%. Besides, the EC50 in [2] (read-out: EC50) came out at 0.33 µM.

For the compound `Fc1cccc2c1OC1(C=C2)CCNCC1`, the maximum response (Emax) in data set [1] (filed as partial agonist) came out at 64.4%. Besides, the EC50 in [2] (read-out: EC50) came to 0.929 µM.

For `COc1ccc2c(c1)C=CC1(CCNCC1)O2`, the result in data set [3] was inactive.

Regarding `C[C@@H]1CC2(C=Cc3ccc(Cl)cc3O2)CCN1` (stereo not given in full), in [1] (filed as partial agonist), the maximal response (Emax) worked out at 82.5%. The EC50 in data set [2] (read-out: EC50) came out at 0.95 µM. For the same compound, the outcome in data set [3] was inactive.

Consider `Clc1cc(Cl)c2c(c1)OC1(C=C2)CCNCC1`, for which the result in data set [3] was inactive.

Consider `Clc1ccc2c(c1)OC1(C=C2)CCNCC1`, for which the result in data set [9] and in data set [7] was inactive. Besides, 10 µM produced 43.9% inhibition in data set [10]. For the same compound, in data set [1] (filed as partial agonist), the maximal response (Emax) worked out at 71.1%. In [2] (read-out: EC50), the EC50 came out at 0.121 µM.

On to `Clc1cccc2c1OC1(C=C2)CCNCC1`, for which the maximum response (Emax) in data set [6] is 30.9%; in [1] (filed as partial agonist) it was 75.7%. The outcome in data set [7] was inactive. The results for the EC50 in data set [2] (read-out: EC50) and in data set [8] were 0.15 µM and 0.47 µM, respectively.

On to `OC1CC2(CCNCC2)Oc2ccccc21` (stereo not given), for which the outcome in [3] was inactive.

Regarding `c1ccc2c(c1)CCC1(CCNCC1)O2`, the outcome in data set [3] was inactive.

As to `CC1CNCCC12C=Cc1ccc(Cl)cc1O2` (stereo in doubt; 29a) [listing 2 of 2 here], the EC50 in data set [2] (read-out: EC50) was found to be 0.476 µM.

As for `CC1CNCCC12C=Cc1ccc(Cl)cc1O2` (stereo in doubt; 29b) [listing 2 of 2 here], the maximum response (Emax) in [1] (filed as partial agonist) is 73.7%.

Regarding `Fc1ccc2c(c1)OC1(C=C2)CCNCC1`, the Emax in data set [4] turned out to be 91.4%. Moreover, the EC50 in data set [5] is 0.158 µM.

For `Cc1cccc2c1OC1(C=C2)CCNCC1`, the Emax in data set [1] worked out at 22.4%. For the same compound, in data set [2] (read-out: EC50), the EC50 was determined as 2.06 µM.

For `COc1cccc2c1C=CC1(CCNCC1)O2`, the outcome in [3] was inactive.

As to `COc1ccc2c3c1-c1ccccc1CC3NCC2` (stereo not given), the result in data set [11] and in [7] was inactive. The EC50 in [2] (read-out: pEC50 (converted)) is 0.1 µM. Further, in data set [12], the inhibition – broadly, the change of the read-out against control, counted positive when it falls – at 10 µM was found to be 92.7%.

With `C1=CC2(CCNCC2)Oc2ccccc21`, the result in [9] and in [7] was inactive. Further, the Emax in data set [6] was found to be 19.4%; in data set [1] (filed as partial agonist), 85.9%. Besides, the EC50 in data set [2] (read-out: EC50) was 0.147 µM; in data set [8], 0.897 µM.

For `C[C@H]1CC2(C=Cc3ccc(Cl)cc3O2)CCN1` (stereo in doubt; 31a), the outcome in [3] was inactive.
